Counter-ions that a name gives are not always drawn. Like-named read-outs stand apart in the source and are kept apart here.
Tested on: Acinetobacter baumannii ATCC17961
Test: Antimicrobial susceptibility testing: 90% growth inhibitory concentration (IC90) determination, Iso-Sensitest broth
Format: cell-based
Details: read-out: ATCC17961 IC90
Procedure, shortened: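 Twofold serial dilutions (e.g. 50 to 0.097 μM final) in Iso-Sensitest broth, inoculum 5×10^(5) CFU/ml, incubated at 35±2° C. OD600 read every 20 minutes over 16 h; IC90 derived from growth inhibition during logarithmic phase.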

[1] = Acinetobacter baumannii, ATCC17961, 16 h, 90% growth inhibitory concentration, Acinetobacter baumannii ATCC17961, Iso-Sensitest broth, OD 600 nm over 16 h
[2] = 90% growth inhibitory concentration, Acinetobacter baumannii ATCC17961, Iso-Sensitest broth, OD 600 nm over 16 h
[3] = Acinetobacter baumannii, ATCC17961, 16 h

| IC90 [1] [µM] | SMILES | IC90 [3] [µM] | also measured |
| --- | --- | --- | --- |
| 0.117 | COc1ccc(-c2cnc3c(Nc4ccc(C(=O)N5CCN(C(=O)[C@@H]6NC[C@@H](O)[C@H]6O)CC5)c(C)c4)nccn23)c(F)c1F [Example 235, (4-(4-((3-(2,3-difluoro-4-methoxyphenyl)imida-zo[1,2-a]pyrazin-8-yl)amino)-2-methylbenzoyl)piper-azin-1-yl)((2R,3S,4R)-3,4-dihydroxypyrrolidin-2-yl)methanone] | – | – |
| 0.113 | COc1ccc(-c2cnc3c(Nc4cc(C)c(C(=O)N5CCN(C(=O)[C@@H]6C[C@@H](O)CN6)CC5)c(F)c4)nccn23)c(F)c1F [Example 243, (4-(4-((3-(2,3-difluoro-4-methoxyphenyl)imidazo[1,2-a]pyrazin-8-yl)amino)-2-fluoro-6-methylbenzoyl)piperazin-1-yl)((2S,4R)-4-hydroxypyrrolidin-2-yl)methanone dihydrochloride] | – | – |
| 2.73 | COc1ccc(-c2cnc3c(Nc4cc(F)c(C(=O)N5CCN(C(=O)[C@@H]6C[C@@H](O)CN6)CC5)cc4F)nccn23)c(F)c1F [Example 244, (4-(4-((3-(2,3-difluoro-4-methoxyphenyl)imidazo[1,2-a]pyrazin-8-yl)amino)-2,5-difluorobenzoyl)piperazin-1-yl)((2S,4R)-4-hydroxypyrrolidin-2-yl)methanone] | – | – |
| 0.074 | C#CCOc1ccc(-c2cnc3c(Nc4ccc(C(=O)N5CCN(C(=O)[C@@H]6C[C@@H](O)CN6)CC5)c(C)c4)nccn23)c(F)c1F [Example 248, [4-[[3-(2,3-difluoro-4-prop-2-ynoxy-phenyl)imidazo[1,2-a]pyrazin-8-yl]amino]-2-methyl-phenyl]-[4-[(2S,4R)-4-hydroxypyrrolidine-2-carbonyl]piperazin-1-yl]methanone] | – | – |
| 0.051 | Cc1cc(Nc2nccn3c(-c4ccc(OCC#N)c(Cl)c4F)cnc23)ccc1C(=O)N1CCN(C(=O)[C@@H]2C[C@@H](O)CN2)CC1 [Example 283, 2-[2-chloro-3-fluoro-4-[8-[4-[4-[(2S,4R)-4-hydroxypyrrolidine-2-carbonyl]piperazine-1-carbonyl]-3-methylanilino]imidazo[1,2-a]pyrazin-3-yl]phenoxy]acetonitrile] | – | – |
| 0.16 | COc1ccc(-c2cnc3c(Nc4ccc(C(=O)N5CCC(C(=O)NC[C@H](O)[C@@H](O)CN)CC5)c(C)c4)nccn23)c(F)c1F [Example 294, N-[(2S,3S)-4-amino-2,3-dihydroxybutyl]-1-[4-[[3-(2,3-difluoro-4-methoxyphenyl)imidazo[1,2-a]pyrazin-8-yl]amino]-2-methylbenzoyl]piperidine-4-carboxamide] | – | – |
| 0.171 | COc1ccc(-c2cnc3c(Nc4ccc(C(=O)N5CCN(C(=O)[C@]6(O)C[C@@H](O)[C@@H](O)[C@H](O)C6)CC5)c(C)c4)nccn23)c(F)c1F [Example 295, [4-[[3-(2,3-difluoro-4-methoxyphenyl)imidazo[1,2-a]pyrazin-8-yl]amino]-2-methylphenyl]-[4-[(3R,5R)-1,3,4,5-tetrahydroxycyclohexanecar-bonyl]piperazin-1-yl]methanone] | – | – |
| 0.192 | COc1ccc(-c2cnc3c(Nc4ccc(C(=O)N5CCN(S(=O)(=O)[C@H]6CCNC6)CC5)c(C)c4)nccn23)c(F)c1F [Example 297, [4-[[3-(2,3-difluoro-4-methoxyphenyl)imidazo[1,2-a]pyrazin-8-yl]amino]-2-methylphenyl]-[4-[(3S)-pyrrolidin-3-yl]sulfonylpiperazin-1-yl]methanone] | – | – |
| 0.137 | CC[C@]1(O)CN[C@H](C(=O)N2CCN(C(=O)c3ccc(Nc4nccn5c(-c6ccc(OC)c(F)c6)cnc45)cc3C)CC2)C1 [Example 464, [4-[(2S,4R)-4-ethyl-4-hydroxypyrrolidine-2-carbonyl]piperazin-1-yl]-[4-[[3-(3-fluoro-4-methoxyphenyl)imidazo[1,2-a]pyrazin-8-yl]amino]-2-methylphenyl]methanone; for-mic acid] | – | – |
| 0.175 | CCc1cc(Nc2nccn3c(-c4ccc(OC)c(F)c4F)cnc23)ccc1C(=O)N1CCNCC1 [Example 466] | – | – |

The remaining lines, values behind:

| SMILES | IC90 [1] [µM] | IC90 [3] [µM] | also measured |
| --- | --- | --- | --- |
| Cc1cc(Nc2nccn3c(-c4ccc(OCC#N)c(F)c4Cl)cnc23)ccc1C(=O)N1CCN(C(=O)[C@@H]2C[C@@H](O)CN2)CC1 [Example 251, 2-[3-chloro-2-fluoro-4-[8-[4-[4-[(2S,4R)-4-hydroxypyrrolidine-2-carbonyl]piperazine-1-carbonyl]-3-methylanilino]imidazo[1,2-a]pyrazin-3-yl]phenoxy]acetonitrile] | – | – | IC90 [2]: 0.08 µM |
| Cc1cc(Nc2nccn3c(-c4ccc(OC(F)F)cc4)cnc23)ccc1C(=O)N1CCC(C(=O)N[C@H]2CCNC2)CC1 [Example 279, 1-[4-[[3-[4-(difluoromethoxy)phenyl]imi-dazo[1,2-a]pyrazin-8-yl]amino]-2-methylbenzoyl]-N-[(3S)-pyrrolidin-3-yl]piperidine-4-carboxamide; hydrochloride] | – | 1.34 | – |
| COc1ccc(-c2cnc3c(Nc4ccc(C(=O)N5CCN(C(=O)[C@@H]6C[C@H](C)CN6)CC5)c(C)c4)nccn23)c(F)c1F [Example 282, [4-[[3-(2,3-difluoro-4-methoxyphenyl)imidazo[1,2-a]pyrazin-8-yl]amino]-2-methylphenyl]-[4-[(2S,4S)-4-methylpyrrolidine-2-carbonyl]piperazin-1-yl]methanone; hydrochloride] | – | 0.072 | – |
| COc1ccc(-c2cnc3c(Nc4ccc(C(=O)N5CCN(C(=O)[C@@H]6C[C@@H](CO)CN6)CC5)c(C)c4)nccn23)c(F)c1F [Example 284, [4-[[3-(2,3-difluoro-4-methoxyphenyl)imidazo[1,2-a]pyrazin-8-yl]amino]-2-methylphenyl]-[4-[(2S,4R)-4-(hydroxymethyl)pyrrolidine-2-carbonyl]piperazin-1-yl]methanone; hydrochloride] | – | 0.049 | – |
| COc1ccc(-c2cnc3c(Nc4ccc(C(=O)N5CCN(C(=O)[C@@]6(O)CNCC[C@@H]6O)CC5)c(C)c4)nccn23)c(F)c1F [Example 287, [4-[[3-(2,3-difluoro-4-methoxyphenyl)imidazo[1,2-a]pyrazin-8-yl]amino]-2-methylphenyl]-[4-[(3R,4S)-3,4-dihydroxypiperidine-3-carbonyl]piperazin-1-yl]methanone] | 0.08 | – | – |
| COc1ccc(-c2cnc3c(Nc4ccc(C(=O)N5CCN(C(=O)[C@]6(O)CNCC[C@H]6O)CC5)c(C)c4)nccn23)c(F)c1F [Example 288, [4-[[3-(2,3-difluoro-4-methoxyphenyl)imidazo[1,2-a]pyrazin-8-yl]amino]-2-methylphenyl]-[4-[(3S,4R)-3,4-dihydroxypiperidine-3-carbonyl]piperazin-1-yl]methanone; hydrochloride] | – | 0.088 | – |
| COc1ccc(-c2cnc3c(Nc4ccc(C(=O)N5CCN(C(=O)N6CCN[C@@H]([C@@H](C)O)C6)CC5)c(C)c4)nccn23)c(F)c1F [Example 289, [4-[[3-(2,3-difluoro-4-methoxyphenyl)imidazo[1,2-a]pyrazin-8-yl]amino]-2-methylphenyl]-[4-[(3R)-3-[(1R)-1-hydroxyethyl]piperazine-1-carbonyl]piperazin-1-yl]methanone; hydrochloride] | – | 0.089 | – |
| COc1ccc(-c2cnc3c(Nc4ccc(C(=O)N5CCN(C(=O)[C@@]6(O)CNCC[C@@H]6O)CC5)c(C)c4)nccn23)c(F)c1F [Example 290, [4-[[3-(2,3-difluoro-4-methoxyphenyl)imidazo[1,2-a]pyrazin-8-yl]amino]-2-methylphenyl]-[4-[(3R,4S)-3,4-dihydroxypiperidine-3-carbonyl]piperazin-1-yl]methanone; hydrochloride] | – | 0.109 | – |
| COc1ccc(-c2cnc3c(Nc4ccc(C(=O)N5CCC(C(=O)N6CCN[C@@H]([C@@H](C)O)C6)CC5)c(C)c4)nccn23)c(F)c1F [Example 292, [4-[[3-(2,3-difluoro-4-methoxyphenyl)imidazo[1,2-a]pyrazin-8-yl]amino]-2-methylphenyl]-[4-[(3R)-3-[(1R)-1-hydroxyethyl]piperazine-1-carbonyl]piperidin-1-yl]methanone; hydrochloride] | – | 0.123 | – |
| COc1ccc(-c2cnc3c(Nc4ccc(C(=O)N5CCC(CN)CC5)c(C)c4)nccn23)cc1 [Example 293, [4-(aminomethyl)piperidin-1-yl]-[4-[[3-(4-methoxyphenyl)imidazo[1,2-a]pyrazin-8-yl]amino]-2-methylphenyl]methanone] | – | – | IC90 [2]: 0.141 µM |
| COc1ccc(-c2cnc3c(Nc4ccc(C(=O)N5CCN(C(=O)[C@@H]6C[C@](C)(O)CN6)CC5)c(C)c4)nccn23)c(F)c1F [Example 455, [4-[[3-(2,3-difluoro-4-methoxyphenyl)imidazo[1,2-a]pyrazin-8-yl]amino]-2-methylphenyl]-[4-[(2S,4S)-4-hydroxy-4-methylpyrrolidine-2-carbonyl]piperazin-1-yl]methanone; formic acid] | – | 0.066 | – |
| COc1ccc(-c2cnc3c(Nc4ccc(C(=O)N5CCN(C(=O)[C@@H]6C[C@](C)(O)CN6)CC5)c(C)c4)nccn23)cc1F [Example 461, [4-[[3-(3-fluoro-4-methoxyphenyl)imidazo[1,2-a]pyrazin-8-yl]amino]-2-methylphenyl]-[4-[(2S,4S)-4-hydroxy-4-methylpyrrolidine-2-carbonyl]piperazin-1-yl]methanone; formic acid] | – | 0.148 | – |
| COc1ccc(-c2cnc3c(Nc4ccc(C(=O)N5CCN(C(=O)[C@@H]6C[C@@](C)(O)CN6)CC5)c(C)c4)nccn23)cc1F [Example 463, [4-[[3-(3-fluoro-4-methoxyphenyl)imidazo[1,2-a]pyrazin-8-yl]amino]-2-methylphenyl]-[4-[(2S,4R)-4-hydroxy-4-methylpyrrolidine-2-carbonyl]piperazin-1-yl]methanone; formic acid] | – | 0.132 | – |
